Where two headings read alike, the source gives them in different places.
Experiments:
A2780 cells = assay: Deoxy-glucose uptake assay in A2780 cells (14C 2-deoxy-D-glucose transport); assay type: cell-based; settings: Homo sapiens, 20 min; inhibition of 14C 2-deoxy-D-glucose transport into A2780 cells; 20 min compound incubation; read-out: IC50
Summary of the method: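 Radiolabelled 2-deoxy-D-glucose transport over 20 min was scintillation-counted in A2780 cells, grown 48 h, after 20 min compound exposure in KRB. Untreated cells gave the 100% reference, with Cytochalasin B defining background. IC50 values were regressed from triplicate means across 7 or 14 concentrations.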

hGLUT1 protein = biological target: T1, hGLUT1 protein (Homo sapiens, UniProt P11166); assay: NanoBRET-based GLUT1-binding assay in HEK cells; settings: for BRET interference signal using Glucose: check of HiBit-tagged GLUT1 HEK cell line, stereoselective signal
T1 construct: fused on or other part: 11-amino-acid HiBiT peptide tag (small part of nanoluciferase) inserted into the first extracellular loop of GLUT1
T1 sequence (P11166 1-492): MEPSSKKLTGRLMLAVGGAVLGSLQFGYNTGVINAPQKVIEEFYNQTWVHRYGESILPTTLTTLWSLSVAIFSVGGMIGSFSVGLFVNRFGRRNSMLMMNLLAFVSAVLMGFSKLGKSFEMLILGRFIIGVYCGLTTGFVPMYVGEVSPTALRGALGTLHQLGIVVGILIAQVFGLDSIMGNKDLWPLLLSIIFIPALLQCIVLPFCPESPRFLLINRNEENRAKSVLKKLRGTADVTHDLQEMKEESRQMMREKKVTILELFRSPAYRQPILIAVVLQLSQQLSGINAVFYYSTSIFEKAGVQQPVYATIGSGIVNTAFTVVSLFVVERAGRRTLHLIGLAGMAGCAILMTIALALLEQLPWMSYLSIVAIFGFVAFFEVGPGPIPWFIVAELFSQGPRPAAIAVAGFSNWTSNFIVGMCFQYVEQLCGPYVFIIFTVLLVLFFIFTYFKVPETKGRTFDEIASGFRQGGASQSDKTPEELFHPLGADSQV
Description: 3. NanoBRET-Based GLUT1-Binding Assays in HEK Cells
To measure binding of compounds to the hGLUT1 protein, the newly-developed NanoBRET platform from Promega is used. In this technology binding is measured via Foerster Resonance Energy Transfer. Foerster Resonance Energy Transfer is based on a direct, radiation-free energy transfer from donor to acceptor and can only take place when donor and acceptor are within nm distance. As donor energy the bioluminescence light of nanoluciferase is used, therefore this application is referred to as BRET (Bioluminescence Resonance Energy Transfer). Nanoluciferase is a protein that emits light when the appropriate substrate is available.
Nanoluciferase is attached to GLUT1 via protein complementation using the HiBit protein tagging system (Promega). […] The HiBit peptide tag is used as a landing pad for the so called Large Bit protein that is commercially available from Promega and added to the medium. Large Bit has a high affinity for HiBit tag resulting in protein complementation to a fully-functional nanoluciferase, which is used as energy donor in the NanoBRET assay system.
To obtain a HEK cell line expressing HiBit-tagged GLUT1, cells were transfected with the appropriate construct placed behind the tetracycline-inducible promoter (Flipin T-Rex system from Thermo Fisher, K650001) and a cell line was generated.
As NanoBRET acceptor a GLUT1 inhibitor described by Siebeneicher et al. (Siebeneicher H., Bauser M., Buchmann B., et al. Identification of novel GLUT inhibitors. Bioorganic & Medicinal Chemistry Letters 2016; 26(7):1732-7; compound 53) was reduced to the aminobenzyl derivative and coupled to the fluorophore NanoBRET618 (Promega) and is referred to as “Bayer+NB618”.
For the assay 50 μl with 7500 cells (HiBit-tagged GLUT1 HEK cells) are plated into 384 poly-D-lysine-coated black μClear plates (Greiner) in DMEM (Gibco 61966) medium supplemented with 10% tetracycline-free FCS (PAN P30-3602) and 300 ng/ml doxycycline (Sigma 9891) to induce the induction of the HiBit-tagged GLUT1 protein.
Incubation of Compound and Acceptor Molecule
After getting adherent by overnight incubation at 37° C. and 10% CO2, the medium is replaced by 10 μl imaging medium (1% BSA (Sigma A9576), 5 mM Hepes (Gibco 15630), 0.35 mM Na-bicarbonate (Gibco 11360-039), 1 mM Na-Pyruvate (Gibco 11360) in PBS buffer (Gibco14040)). 5 μl Bayer+NB618 (in imaging medium, final concentration 75 nM) is added and the plates are incubated for 15 minutes statically at room temperature.
A serial dilution of the test compounds is prepared in imaging medium and added in 10 μl to the respective wells. As a positive control for displacement values from wells incubated with 200 mM D-Glucose (Sigma G8769) are used. Plates are incubated for 30 minutes at room temperature without shaking.
Generating Luminescence and Measuring Fluorescence
This detection solution is made in the buffer provided. After addition of the detection reagent, the samples are incubated for 30 minutes without shaking and subsequently the luminescence and fluorescence emissions are measured simultaneously on the PHERAstar FSX (BMG Labtech) using the appropriate dual filter setup. This filter setup is made up of a 450-80 nm band pass filter to measure the donor signal peaking at 460 nm and a long pass filter starting at 610 nm to measure the fluorescence emission of NanoBRET 618, which peaks at 621 nm and continues beyond 700 nm.
From the raw luminescence and fluorescence values, the NanoBRET ratios are calculated, being the ratio of the fluorescence signal divided by the luminescence signal. Mean values are obtained from at least duplicates.
For percentage inhibition results, the mean value of the not-compound-treated cells is set as 0%. The mean BRET value of the cells treated with 200 mM glucose is used for maximal inhibition. All other mean values were calculated to this relation. […]

[1] = tested on: A2780 Human Carcinoma Cells; assay: Glucose displacement assay (ATP measurement, CellTiter-Glo); assay type: cell-based; settings: ATP measurement in A2780 cells, 0.5 μM rotenone
Description: 2. Glucose Displacement Assay (ATP Measurement)
30,000 A2780 Human Carcinoma Cells are seeded per well in a Greiner 96-well plate. Cells are expanded and cultured in RPMI 1640 medium+GlutaMAX® with 10% FCS and 11 mM glucose, at 37° C. with 5% CO2. After 44 h, culture media is changed and washed once with PBS to starvation media consisting of RPMI 1640 medium with 1% FCS without glucose for 2 hours. Cells are then washed with KRB buffer, followed by incubation for 20 min at 37° C. of the treatment mix consisting of 60 μL KRB buffer/well and 10 μL of compound or DMSO 10×. 10 μl of rotenone is added to the mix to a final concentration of 0.5 μM. Cell plates are left for 2 min at room temperature. 20 μL of different glucose concentrations are added to the mix—typically 0.1 to 10 mM range—.
Cells are incubated for another 15 min at 37° C., before measuring ATP with the CellTiter-Glo® Assay, under manufacturer's guidance, but without the equilibration step at room temperature for 30 min. In brief, 100 μl of Cell-Titer-Glo® Reagent is added to the wells containing already 100 μl of the previous reaction mix. Plates are mixed for 2 min at 800 rpm, followed by incubation at room temperature for 10 min to stabilize the luminescent signal. Luminescence is then recorded with the Tekan Ultra Evolution reader.

[2] = displacement of Bayer+NB618 (75 nM) from HiBit-tagged GLUT1 HEK cells, mean of measurements done twice in duplo, read-out: IC50
[3] = 1 mM glucose, read-out: IC50 [μM] at 1 mM glucose
[4] = 10 mM glucose, read-out: IC50 [μM] at 10 mM glucose

Row | SMILES | IC50 (A2780 cells) | IC50 (hGLUT1 protein; [2]) | IC50 [1, 3] | IC50 [1, 4] | BRET interference signal using Glucose (hGLUT1 protein) | IC50 (hGLUT1 protein)
1 | C#CCCCCCn1c(COc2c(Cl)cc(C(=O)O[C@H]3[C@@H](OC)O[C@H](CO)[C@@H](O)[C@@H]3O)c(C)c2Cl)nc2ccccc21 [Example 320] | 0.02 µM | 0.22 µM | 0.51 µM | 1.13 µM |  | 
2 | C#CCCCn1c(COc2cc(OC)c(C(=O)N[C@H]3[C@@H](OC)O[C@H](CO)[C@@H](O)[C@@H]3O)cc2Cl)nc2ccccc21 [Example 328] | 1.6 µM | 13.6 µM | 0.56 µM | > 33 µM |  | 
3 | O=C[C@@H](O)[C@H](O)[C@@H](O)[C@@H](O)CO [L-Glucose, reference compound] |  |  |  |  | no effect on BRET | 
4 | CO[C@H]1O[C@H](CO)[C@@H](O)[C@H](O)[C@H]1OC(=O)c1cc(Cl)c(OCc2cccc(CNC(=O)OC(C)(C)C)c2)c(Cl)c1C [Example 202a] | 1.8 µM | 4.41 µM |  |  |  | 
5 | COc1cc(OCc2cccc(NC(=O)OC(C)(C)C)c2)c(Cl)cc1C(=O)N[C@H]1[C@H](OC)O[C@H](CO)[C@@H](O)[C@@H]1O [Example 415] | 0.7 µM | 8.3 µM | 3.07 µM | 9.21 µM |  | 
6 | COC(=O)/C=C/c1ccc(COc2cc(OC)c(C(=O)N[C@H]3[C@@H](OC)O[C@H](CO)[C@@H](O)[C@@H]3O)cc2Cl)cc1 [Example 370] | 0.4 µM | 6.98 µM |  |  |  | 
7 | COC(=O)[C@H](CCC(=O)NCc1cccc(COc2c(Cl)cc(C(=O)O[C@H]3[C@@H](OC)O[C@H](CO)[C@@H](O)[C@@H]3O)c(C)c2Cl)c1)NC(=O)OC(C)(C)C [Example 306] | 3 µM | 0.19 µM | 1.86 µM | 7.95 µM |  | 
8 | CO[C@H]1O[C@H](CO)[C@@H](O)[C@H](O)[C@H]1NC(=O)c1cc(Cl)c(OCc2nc3ccccc3n2CCCCCCNC(=O)OC(C)(C)C)c(Cl)c1C [Example 305] | 0.1 µM | 2.83 µM |  |  |  | 
9 | COC(=O)c1ccn2cc(COc3cc(OC)c(C(=O)N[C@H]4[C@@H](OC)O[C@H](CO)[C@@H](O)[C@@H]4O)cc3Cl)nc2c1 [Example 416] |  | 9.77 µM | 1.64 µM | 22.4 µM |  | 
10 | COc1cc(OCc2ccc3c(c2)nnn3C)c(Cl)cc1C(=O)O[C@H]1[C@@H](OC)O[C@H](CO)[C@@H](O)[C@@H]1O [Example 340] | 0.4 µM | 9.49 µM | 0.35 µM | 4.55 µM |  | 
11 | COc1cc(OCc2cccc(OCCCC(=O)OC(C)(C)C)c2)c(Cl)cc1C(=O)N[C@H]1[C@@H](OC)O[C@H](CO)[C@@H](O)[C@@H]1O [Example 393] | 0.9 µM | 17.2 µM |  |  |  | 
12 | O=C[C@H](O)[C@@H](O)[C@H](O)[C@H](O)CO [D-Glucose, reference compound] |  |  |  |  | decreases BRET | 5330 ± 560 µM
13 | C#CCCCn1cnc(COc2c(Cl)cc(C(=O)O[C@H]3[C@@H](OC)O[C@H](CO)[C@@H](O)[C@@H]3O)cc2OC)c1 [Example 208] | 12.7 µM |  | 21.4 µM | > 100 µM |  | 
14 | C#CCCCn1c(COc2c(Cl)cc(C(=O)O[C@H]3[C@@H](OC)O[C@H](CO)[C@@H](O)[C@@H]3O)c(C)c2Cl)nc2ccccc21 [Example 212] | 0.1 µM | 0.24 µM | < 0.12 µM | 0.288 µM |  | 
15 | COc1cc(OCc2nc3ccccc3n2CCCCCCCCCCCC(=O)O)c(Cl)cc1C(=O)N[C@H]1[C@@H](OC)O[C@H](CO)[C@@H](O)[C@@H]1O [Example 469] | 1.7 µM |  | 2.4 µM | 3.3 µM |  | 
16 | C#CCCCn1c(COc2cc(OC)c(C(=O)O[C@@H]3[C@@H](O)[C@@H](OC)O[C@H](CO)[C@H]3O)cc2Cl)nc2ccccc21 [Example 367] | 3.9 µM | > 30 µM |  |  |  | 

Source: US20210170033A1, “NOVEL CONJUGATES OF A PHARMACEUTICAL AGENT AND A MOIETY CAPABLE OF BINDING TO A GLUCOSE SENSING PROTEIN” (SANOFI, priority 2017, published 2021)
